Measured values taken from article PMC2868067 (Molecular cancer therapeutics, 2010).

System: kinases in the Src family
Conditions: read-out: apparent IC50, Srctide; multiplexed, treated K-562 lysates (Figure 6A)

IC50: 1.1 nM
Compound: Cc1nc(Nc2ncc(C(=O)Nc3c(C)cccc3Cl)s2)cc(N2CCN(CCO)CC2)n1 [dasatinib, N-(2-chloro-6-methyl-phenyl)-2-(6-(4-(2-hydroxyethyl)-piperazin-1-yl)-2-methylpyrimidin-4-ylamino)thiazole-5-carboxamide]
